Test results as given in patent publication EP1641803B1, “THIENOPYRIMIDINE DERIVATIVES AS POTASSIUM CHANNEL INHIBITORS” (Xention Limited, priority 2003, dated 2004).

Experiments:
[1] = molecular target: T1, human Kv1.5 (Homo sapiens, UniProt P22460); assay: Kv1.5 Rb+ Efflux Assay; type: cell-based; conditions: inhibition of 86Rb+ efflux through Kv1.5; cells stably transfected with human Kv1.5; 10 point concentration response curves n=2; normalised to 2.5mM 4 amino-pyridine block
T1 construct: expressed in transfected cells
In short: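 Cells stably expressing human Kv1.5 loaded with ⁸⁶Rb⁺ ≥3 h, preincubated 10 min at room temperature with compound, then depolarised with high-KCl (145mM) buffer for 10 min; effluxed ⁸⁶Rb⁺ counted by Cerenkov emission (alternatively ⁸⁵Rb⁺ by atomic absorption). Inhibition normalised to 2.5mM 4-aminopyridine block; IC50 from 10-point curves, n=2, variable-slope sigmoidal fit.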

[2] = molecular target: hKv1.5 (Homo sapiens, UniProt P22460); assay: Kv1.5 Autopatch Electrophysiology (whole cell patch-clamp); type: cell-based; conditions: compound at 1µM, room temperature (22-24°C), held at -80mV, step to 0mV for 1000ms, total charge measured
In short: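 Whole-cell automated patch-clamp at 22-24°C, compounds tested at 1µM in external bather (KCl/K-gluconate, pH 7.4; KCl/EGTA pipette). Cells held at -80mV and stepped to 0mV for 1000ms every 5s; only cells with IK > 500 pA and Rseries ≤18 MΩ used. Read-out: total charge over the whole step.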

T1 sequence (P22460 whole entry): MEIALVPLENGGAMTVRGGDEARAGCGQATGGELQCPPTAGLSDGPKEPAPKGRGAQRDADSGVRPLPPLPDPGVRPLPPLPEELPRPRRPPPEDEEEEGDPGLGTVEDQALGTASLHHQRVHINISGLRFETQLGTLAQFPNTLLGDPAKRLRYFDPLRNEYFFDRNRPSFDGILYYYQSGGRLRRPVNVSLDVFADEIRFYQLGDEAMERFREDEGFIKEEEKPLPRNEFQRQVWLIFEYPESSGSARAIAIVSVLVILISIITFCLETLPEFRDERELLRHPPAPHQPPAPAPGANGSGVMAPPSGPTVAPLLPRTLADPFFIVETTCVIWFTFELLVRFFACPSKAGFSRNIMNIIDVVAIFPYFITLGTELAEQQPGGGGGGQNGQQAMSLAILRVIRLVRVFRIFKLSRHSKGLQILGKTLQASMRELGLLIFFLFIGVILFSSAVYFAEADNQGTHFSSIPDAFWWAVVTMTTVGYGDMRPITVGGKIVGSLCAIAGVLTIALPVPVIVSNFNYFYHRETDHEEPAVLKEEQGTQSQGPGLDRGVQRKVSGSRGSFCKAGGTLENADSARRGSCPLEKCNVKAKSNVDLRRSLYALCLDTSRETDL
hKv1.5, sequence (P22460 whole entry): as above

| Compound | IC50 [1] | inhibition at 1 µM [2] |
| --- | --- | --- |
| c1ccc(-c2csc3nc(NCc4ccco4)nc(NCc4ccco4)c23)cc1 [Example 193, N,N'-Bis(2-furylmethyl)-5-phenylthieno[2,3-d]pyrimidine-2,4-diamine] | 2.5 µM | 89.2% |
| c1ccc(COc2nc(NCc3ccco3)c3c(-c4ccccc4)csc3n2)cc1 [Example 195, (2-Benzyloxy-5-phenyl-thieno[2,3-d]pyrimidin-4-yl)-furan-2-ylmethyl-amine] | 6.39 µM | 90% |
| CNc1nc(NCc2ccccn2)c2c(-c3ccccc3)csc2n1 [Example 196, N^2-methyl-5-phenyl-N^4-(pyridin-2-ylmethyl)thieno[2,3-d]pyrimidine-2,4-diamine] | 0.04 µM | 97% |
| c1ccc(-c2csc3nc(N4CCOCC4)nc(NCc4ccccn4)c23)cc1 [Example 197, (2-Morpholin-4-yl-5-phenyl-thieno[2,3-d]pyrimidin-4-yl)-pyridin-2-ylmethyl-amine] | 0.15 µM | 98% |
| N#Cc1nc(NCc2ccccn2)c2c(-c3ccccc3)csc2n1 [Example 199, 5-Phenyl-4-[(pyridin-2-ylmethyl)-amino]-thieno[2,3-d]pyrimidine-2-carbonitrile] | 6.61 µM | 99.5% |
| CN(C)c1nc(NCc2ccccn2)c2c(-c3ccc(F)cc3)csc2n1 [Example 200, 5-(4-Fluorophenyl)-N^2,N^2-dimethyl-N^4-pyridin-2-ylmethyl-thieno[2,3-d]pyrimidine-2,4-diamine] | 71.8 µM | 99.3% |
| COC(=O)C1CCN(c2nc(NCc3ccccn3)c3c(-c4ccc(F)cc4)csc3n2)CC1 [Example 201, 1-{5-(4-Fluorophenyl)-4-[(pyridin-2-ylmethyl)-amino]-thieno[2,3-d]pyrimidin-2-yl}-piperidine-4-carboxylic acid methyl ester] | 15.9 µM | 98.2% |
| CCOC(=O)CCNc1nc(NCc2ccccn2)c2c(-c3ccccc3)csc2n1 [Example 202, 3-{5-Phenyl-4-[(pyridin-2-ylmethyl)-amino]-thieno[2,3-d]pyrimidin-2-ylamino}-propionic acid ethyl ester] | 2.7 µM | 98% |
| COCCOc1nc(NCc2ccccn2)c2c(-c3ccccc3)csc2n1 [Example 203, [2-(2-Methoxy-ethoxy)-5-phenyl-thieno[2,3-d]pyrimidin-4-yl]-pyridin-2-ylmethyl-amine] | 0.48 µM | 98% |
| CNc1nc(NCc2ccccn2)c2c(-c3ccc(F)cc3)csc2n1 [Example 204, 5-(4-Fluorophenyl)-N^2-methyl-N^4-pyridin-2-ylmethyl-thieno[2,3-d]pyrimidine-2,4-diamine] | 4.7 µM | 97.9% |
| Nc1nc(NCc2ccccn2)c2c(-c3ccc(F)cc3)csc2n1 [Example 205, 5-(4-Fluorophenyl)-N^4-pyridin-2-ylmethyl-thieno[2,3-d]pyrimidine-2,4-diamine] | 11.9 µM | 97.5% |
| OCCC1CCN(c2nc(NCc3ccccn3)c3c(-c4ccccc4)csc3n2)CC1 [Example 206, 2-(1-{5-Phenyl-4-[(pyridin-2-ylmethyl)-amino]-thieno[2,3-d]pyrimidin-2-yl}-piperidin-4-yl)-ethanol] | 3.41 µM | 97.5% |
| Fc1ccc(-c2csc3nc(N4CCOCC4)nc(NCc4ccccn4)c23)cc1 [Example 207, [5-(4-Fluorophenyl)-2-morpholin-4-yl-thieno[2,3-d]pyrimidin-4-yl]-pyridin-2-ylmethyl-amine] | 42.5 µM | 97.2% |
| OCCN(CCO)c1nc(NCc2ccccn2)c2c(-c3ccccc3)csc2n1 [Example 208, 2-((2-Hydroxy-ethyl)-{5-phenyl-4-[(pyridin-2-ylmethyl)-amino]-thieno[2,3-d]pyrimidin-2-yl}-amino)-ethanol] | 0.33 µM | 96.6% |
| COCCNc1nc(NCc2ccccn2)c2c(-c3ccc(F)cc3)csc2n1 [Example 209, 5-(4-Fluorophenyl)-N^2-(2-methoxy-ethyl)-N^4-pyridin-2-ylmethyl-thieno[2,3-d]pyrimidine-2,4-diamine] | 1.83 µM | 96% |
| OCC(CO)Nc1nc(NCc2ccccn2)c2c(-c3ccccc3)csc2n1 [Example 210, 2-{5-Phenyl-4-[(pyridin-2-ylmethyl)-amino]-thieno[2,3-d]pyrimidin-2-ylamino}-propane-1,3-diol] | 0.74 µM | 95.6% |
| CN(C)CCOc1nc(NCc2ccccn2)c2c(-c3ccccc3)csc2n1 [Example 211, [2-(2-Dimethylamino-ethoxy)-5-phenyl-thieno[2,3-d]pyrimidin-4-yl]-pyridin-2-ylmethyl-amine] | 5.37 µM | 89% |
| OCCNc1nc(NCc2ccccn2)c2c(-c3ccc(F)cc3)csc2n1 [Example 212, 2-{5-(4-Fluorophenyl)-4-[(pyridin-2-ylmethyl)-amino]-thieno[2,3-d]pyrimidin-2-ylamino}-ethanol] | 7.63 µM | 87% |
| CCOC(=O)Cc1nc(NCc2ccccn2)c2c(-c3ccccc3)csc2n1 [Example 237, {5-Phenyl-4-[(pyridin-2-ylmethyl)amino]thieno[2,3-d]pyrimidin-2-yl} acetic acid ethyl ester] | 0.54 µM | 95% |
| CCOC(=O)Cc1nc(NCc2ccco2)c2c(-c3ccccc3)csc2n1 [Example 238, {4-[(Furan-2-ylmethyl)-amino]-5-phenyl-thieno[2,3-d]pyrimidin-2-yl}-acetic acid ethyl ester] | 3.33 µM | 96% |
| OCCc1nc(NCc2ccccn2)c2c(-c3ccccc3)csc2n1 [Example 250, 2-{5-Phenyl-4-[(pyridin-2-ylmethyl)amino]thieno[2,3-d]pyrimidin-2-yl}ethanol] | 0.33 µM | 98% |
| OCCc1nc(NCc2ccco2)c2c(-c3ccccc3)csc2n1 [Example 251, 2-{4-[(Furan-2-ylmethyl)-amino]-5-phenyl-thieno[2,3-d]pyrimidin-2-yl}-ethanol] | 0.08 µM | 98% |
| OCC(CO)c1nc(NCc2ccccn2)c2c(-c3ccccc3)csc2n1 [Example 275, 2-{5-Phenyl-4-[(pyridin-2-ylmethyl)-amino]-thieno[2,3-d]pyrimidin-2-yl}-propane-1,3-diol] | 1.53 µM | 93% |
| FC(F)(F)c1ccc(-c2csc3ncnc(NCc4ccccn4)c23)cc1 [Example 313, Pyridin-2-ylmethyl-[5-(4-trifluoromethyl-phenyl)-thieno[2,3-d]pyrimidin-4-yl]-amine] | 2.9 µM | 98.3% |
| c1ccc(CNc2ncnc3scc(-c4ccc5c(c4)OCO5)c23)nc1 [Example 314, (5-Benzo[1,3]dioxol-5-yl-thieno[2,3-d]pyrimidin-4-yl)-pyridin-2-ylmethyl-amine] | 0.01 µM | 97.3% |
| c1ccc(CNc2ncnc3scc(-c4ccc5c(c4)OCCO5)c23)nc1 [Example 320, [5-(2,3-Dihydro-benzo[1,4]dioxin-6-yl)-thieno[2,3-d]pyrimidin-4-yl]-pyridin-2-ylmethyl-amine] | 0.37 µM | 97% |
